Assays:
AChE = AChE (Homo sapiens, UniProt P22303); assay: biochemical; conditions: for inhibition at 1000 µM: 10^−3 M; for IC50: 10^−3–10^−9 M concentrations; for inhibition at 100 µM: 10^−4 M
BChE = BChE (Homo sapiens, UniProt P06276); assay: Anticholinesterase activity assay (modified Ellman method), BChE; format: biochemical; conditions: for inhibition at 1000 µM: 10^−3 M; for inhibition at 100 µM: 10^−4 M
Procedure: . Initially, all the obtained compounds were tested at 10^−3 M and 10^−4 M concentrations and the ChE inhibitory results are outlined in Table 1. […]. Compounds 3a, 3c and 3i indicated more than 50% activity at the 10^−4 M concentration. […]. […] According to the results of activity tests, some general results can be listed as follows. The compounds 3a, 3c and 3i contain the non-substituted, methoxy and trifluoromethyl substituents on the phenyl ring, respectively. […]
The inhibitory capacity of the obtained compounds on AChE and BChE biological activities was assessed using a modified Ellman’s spectrometric method, as described in our previous studies. Donepezil were used as a reference drug. All pipetting procedures in the enzyme inhibition assay were carried out via a robotics system, Biotek Precision XS (Winooski, VT, USA). A BioTek-Synergy H1 microplate reader (Winooski, VT, USA) was used to carry out measurements of percent inhibition at 412 nm, and the IC50 values of the selected compounds were performed as previously described.

hMAO-A = target: T1, hMAO-A (Homo sapiens, UniProt P21397); assay: Monoamine oxidase fluorometric inhibition assay, MAO-A; format: biochemical; conditions: for inhibition at 1000 µM: 10^−3 M; for inhibition at 100 µM: 10^−4 M
T1 construct: purchased Sigma-Aldrich (Steinheim, Germany)
T1 sequence (P21397 1-527): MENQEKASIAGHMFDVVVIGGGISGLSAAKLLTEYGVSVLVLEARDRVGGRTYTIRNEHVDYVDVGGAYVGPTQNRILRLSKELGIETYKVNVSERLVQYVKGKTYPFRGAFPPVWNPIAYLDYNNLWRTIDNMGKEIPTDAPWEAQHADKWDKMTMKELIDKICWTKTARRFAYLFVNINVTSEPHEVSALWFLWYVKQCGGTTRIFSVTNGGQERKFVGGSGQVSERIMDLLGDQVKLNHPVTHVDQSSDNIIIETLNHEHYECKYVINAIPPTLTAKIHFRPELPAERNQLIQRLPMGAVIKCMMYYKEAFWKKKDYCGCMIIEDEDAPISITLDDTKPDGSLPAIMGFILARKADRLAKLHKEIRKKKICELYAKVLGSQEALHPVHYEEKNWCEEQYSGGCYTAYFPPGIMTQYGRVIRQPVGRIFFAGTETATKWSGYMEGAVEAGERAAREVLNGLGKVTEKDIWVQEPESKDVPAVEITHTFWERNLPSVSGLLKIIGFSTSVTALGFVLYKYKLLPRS
Procedure: In order to investigate the monoamine oxidase enzyme inhibitory effects of synthesized compounds, MAO-A and MAO-B enzyme activities were performed by using a fluorometric inhibition method. Moclobemide and selegiline were used as standard drugs for MAO-A and MAO-B enzymes, respectively. Test compounds and standard drugs were used in the same concentrations as in AChE and BChE enzyme activity assays. In Table 2, MAO enzyme inhibitory results are given. […]. To investigate the MAO-A and MAO-B enzyme inhibition profiles of the synthesized compounds, the fluorometric enzyme inhibition assay was carried out, as previously defined by us. Ampliflu™ Red (10-Acetyl-3,7-dihydroxyphenoxazine) was used as a fluorescence reagent in this assay.

hMAO-B = target: T2, hMAO-B (Homo sapiens, UniProt P27338); assay: biochemical; conditions: for inhibition at 1000 µM: 10^−3 M; for inhibition at 1000 µM / inhibition at 100 µM: read-out: MAO-B % Inhibition; for inhibition at 100 µM: 10^−4 M; for IC50: read-out: MAO-B IC50
T2 construct: purchased Sigma-Aldrich (Steinheim, Germany)
T2 sequence (P27338 1-520): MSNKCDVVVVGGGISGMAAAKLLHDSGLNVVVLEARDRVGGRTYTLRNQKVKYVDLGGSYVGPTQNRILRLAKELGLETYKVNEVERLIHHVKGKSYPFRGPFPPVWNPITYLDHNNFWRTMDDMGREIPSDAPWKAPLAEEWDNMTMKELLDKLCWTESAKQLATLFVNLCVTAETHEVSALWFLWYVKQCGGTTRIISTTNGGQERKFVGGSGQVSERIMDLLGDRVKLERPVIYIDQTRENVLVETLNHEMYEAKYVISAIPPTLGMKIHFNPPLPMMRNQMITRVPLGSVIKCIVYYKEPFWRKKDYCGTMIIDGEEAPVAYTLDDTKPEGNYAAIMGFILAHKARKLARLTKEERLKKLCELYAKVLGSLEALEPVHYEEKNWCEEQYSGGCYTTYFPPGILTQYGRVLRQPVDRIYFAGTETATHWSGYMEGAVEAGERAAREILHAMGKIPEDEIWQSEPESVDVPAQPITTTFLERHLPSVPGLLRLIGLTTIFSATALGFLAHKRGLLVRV
Procedure: Test compounds and standard drugs were used in the same concentrations as in AChE and BChE enzyme activity assays. […] To investigate the MAO-A and MAO-B enzyme inhibition profiles of the synthesized compounds, the fluorometric enzyme inhibition assay was carried out, as previously defined by us. Ampliflu™ Red (10-Acetyl-3,7-dihydroxyphenoxazine) was used as a fluorescence reagent in this assay.

Sequence of AChE (P22303 32-614): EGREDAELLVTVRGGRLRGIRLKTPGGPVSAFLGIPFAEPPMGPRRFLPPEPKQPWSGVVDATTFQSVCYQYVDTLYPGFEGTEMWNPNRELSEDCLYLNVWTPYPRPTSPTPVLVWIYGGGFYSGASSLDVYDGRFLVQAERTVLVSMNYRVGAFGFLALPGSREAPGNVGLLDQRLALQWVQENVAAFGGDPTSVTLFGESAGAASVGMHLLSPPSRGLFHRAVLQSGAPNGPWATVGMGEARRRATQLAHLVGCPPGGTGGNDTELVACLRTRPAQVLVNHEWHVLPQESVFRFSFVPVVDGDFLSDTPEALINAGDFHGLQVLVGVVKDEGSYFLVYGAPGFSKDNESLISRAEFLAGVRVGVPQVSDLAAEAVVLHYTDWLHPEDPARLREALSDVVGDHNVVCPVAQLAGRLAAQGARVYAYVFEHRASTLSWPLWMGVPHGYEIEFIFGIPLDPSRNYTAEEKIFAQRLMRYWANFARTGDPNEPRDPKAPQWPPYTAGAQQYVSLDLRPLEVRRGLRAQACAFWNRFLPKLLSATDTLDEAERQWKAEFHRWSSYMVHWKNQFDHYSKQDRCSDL
Sequence of BChE (P06276 29-602): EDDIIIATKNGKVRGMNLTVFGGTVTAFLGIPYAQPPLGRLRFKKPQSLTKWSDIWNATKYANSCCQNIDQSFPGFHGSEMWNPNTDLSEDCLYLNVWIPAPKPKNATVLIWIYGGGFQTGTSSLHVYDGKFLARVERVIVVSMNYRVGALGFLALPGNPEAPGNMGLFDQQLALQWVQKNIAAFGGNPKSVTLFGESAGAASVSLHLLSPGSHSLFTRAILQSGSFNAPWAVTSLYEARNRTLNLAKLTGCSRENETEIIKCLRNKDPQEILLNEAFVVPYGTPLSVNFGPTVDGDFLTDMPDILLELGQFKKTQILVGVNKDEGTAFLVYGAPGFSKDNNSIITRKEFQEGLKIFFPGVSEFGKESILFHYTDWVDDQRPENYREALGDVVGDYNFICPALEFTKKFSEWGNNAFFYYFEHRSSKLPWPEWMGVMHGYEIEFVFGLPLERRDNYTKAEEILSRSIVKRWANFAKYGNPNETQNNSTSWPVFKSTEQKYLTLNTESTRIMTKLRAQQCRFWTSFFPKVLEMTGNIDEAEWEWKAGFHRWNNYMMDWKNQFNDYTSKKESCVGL

`Fc1ccc(N2CCN(c3ccc(C=NNc4nc(-c5ccccc5)cs4)cc3)CC2)cc1` [Compound 3a, 2-(2-(4-(4-(4-fluorophenyl)piperazin-1-yl)benzylidene)hydrazineyl)-4-phenylthiazole] showed an inhibition at 1000 µM (AChE) of 84.2 ± 0.89%, an IC50 (AChE) of 49.6 ± 2 nM and an inhibition at 1000 µM (BChE) of 21.5 ± 0.38%. The inhibition at 100 µM (BChE) was 19.3 ± 0.28%, the inhibition at 1000 µM (hMAO-A) was 38.2 ± 0.95% and the inhibition at 100 µM (hMAO-A) was 20.1 ± 0.63%. The inhibition at 1000 µM (hMAO-B) was 78.2 ± 1.05%, the inhibition at 100 µM (hMAO-B) was 70.2 ± 0.99% and the IC50 (hMAO-B) was 2110 ± 86 nM.
Work on `Cc1ccc(-c2csc(NN=Cc3ccc(N4CCN(c5ccc(F)cc5)CC4)cc3)n2)cc1` [Compound 3b, 2-(2-(4-(4-(4-fluorophenyl)piperazin-1-yl)benzylidene)hydrazineyl)-4-(p-tolyl)thiazole] yielded an inhibition at 1000 µM (AChE) of 75.3 ± 1.05%, an inhibition at 100 µM (AChE) of 45.9 ± 0.88% and an inhibition at 1000 µM (BChE) of 37.4 ± 0.67%. It also gave an inhibition at 100 µM (BChE) of 25.3 ± 0.58%, an inhibition at 1000 µM (hMAO-A) of 44.2 ± 1.08% and an inhibition at 100 µM (hMAO-A) of 25.8 ± 0.8%. The inhibition at 1000 µM (hMAO-B) was 60.8 ± 1.11% and the inhibition at 100 µM (hMAO-B) was 46.7 ± 0.98%.
`O=[N+]([O-])c1ccc(-c2csc(NN=Cc3ccc(N4CCN(c5ccc(F)cc5)CC4)cc3)n2)cc1` [Compound 3d, 2-(2-(4-(4-(4-fluorophenyl)piperazin-1-yl)benzylidene)hydrazineyl)-4-(4-nitrophenyl)thiazole] was tested, and the inhibition at 1000 µM (AChE) was 76.7 ± 1.12%, the inhibition at 100 µM (AChE) was 38.5 ± 0.76% and the inhibition at 1000 µM (BChE) was 35.4 ± 0.49%. It also gave an inhibition at 100 µM (BChE) of 31.9 ± 0.56%, an inhibition at 1000 µM (hMAO-A) of 51 ± 0.97% and an inhibition at 100 µM (hMAO-A) of 39.1 ± 0.71%. For the same compound, the inhibition at 1000 µM (hMAO-B) was 75.7 ± 1.06%, the inhibition at 100 µM (hMAO-B) was 65.2 ± 0.97% and the IC50 (hMAO-B) was 5200 ± 153 nM.
In the case of `N#Cc1ccc(-c2csc(NN=Cc3ccc(N4CCN(c5ccc(F)cc5)CC4)cc3)n2)cc1` [Compound 3e, 4-(2-(2-(4-(4-(4-fluorophenyl)piperazin-1-yl)benzylidene)hydrazineyl)thiazol-4-yl)benzonitrile], the inhibition at 1000 µM (AChE) is reported as 71.2 ± 0.9%, the inhibition at 100 µM (AChE) is reported as 42.3 ± 0.63% and the inhibition at 1000 µM (BChE) is reported as 31.8 ± 0.61%. For the same compound, the inhibition at 100 µM (BChE) was 24.9 ± 0.38%, the inhibition at 1000 µM (hMAO-A) was 47.2 ± 0.88% and the inhibition at 100 µM (hMAO-A) was 23.5 ± 0.6%. It also gave an inhibition at 1000 µM (hMAO-B) of 58.1 ± 0.9% and an inhibition at 100 µM (hMAO-B) of 43.1 ± 0.71%.
Work on `Fc1ccc(-c2csc(NN=Cc3ccc(N4CCN(c5ccc(F)cc5)CC4)cc3)n2)cc1` [Compound 3f, 4-(4-fluorophenyl)-2-(2-(4-(4-(4-fluorophenyl)piperazin-1-yl)benzylidene)hydrazineyl)thiazole] yielded an inhibition at 1000 µM (AChE) of 78.4 ± 1.04%, an inhibition at 100 µM (AChE) of 48.1 ± 0.87% and an inhibition at 1000 µM (BChE) of 28.2 ± 0.42%. For the same compound, the inhibition at 100 µM (BChE) was 20.4 ± 0.35%, the inhibition at 1000 µM (hMAO-A) was 30.1 ± 0.47% and the inhibition at 100 µM (hMAO-A) was 19.3 ± 0.41%. It also gave an inhibition at 1000 µM (hMAO-B) of 57.3 ± 1.03% and an inhibition at 100 µM (hMAO-B) of 39.2 ± 0.79%.
`Fc1ccc(N2CCN(c3ccc(C=NNc4nc(-c5ccc(Cl)cc5)cs4)cc3)CC2)cc1` [Compound 3g, 4-(4-chlorophenyl)-2-(2-(4-(4-(4-fluorophenyl)piperazin-1-yl)benzylidene)hydrazineyl)thiazole] was tested, and the inhibition at 1000 µM (AChE) was 64.5 ± 0.67%, the inhibition at 100 µM (AChE) was 37.8 ± 0.6% and the inhibition at 1000 µM (BChE) was 38.54 ± 0.35%. The inhibition at 100 µM (BChE) was 20.2 ± 0.35%, the inhibition at 1000 µM (hMAO-A) was 48.2 ± 0.97% and the inhibition at 100 µM (hMAO-A) was 30.2 ± 0.5%. It also gave an inhibition at 1000 µM (hMAO-B) of 68.1 ± 1.12% and an inhibition at 100 µM (hMAO-B) of 41.8 ± 0.86%.
`Fc1ccc(N2CCN(c3ccc(C=NNc4nc(-c5ccc(Br)cc5)cs4)cc3)CC2)cc1` [Compound 3h, 4-(4-bromophenyl)-2-(2-(4-(4-(4-fluorophenyl)piperazin-1-yl)benzylidene)hydrazineyl)thiazole] showed an inhibition at 1000 µM (AChE) of 75.3 ± 1.06%, an inhibition at 100 µM (AChE) of 47.1 ± 0.74% and an inhibition at 1000 µM (BChE) of 40.6 ± 0.68%. The inhibition at 100 µM (BChE) was 35.5 ± 0.41%, the inhibition at 1000 µM (hMAO-A) was 34.2 ± 0.58% and the inhibition at 100 µM (hMAO-A) was 22.2 ± 0.47%. For the same compound, the inhibition at 1000 µM (hMAO-B) was 68.9 ± 1.25% and the inhibition at 100 µM (hMAO-B) was 39.1 ± 0.63%.
With `Fc1ccc(N2CCN(c3ccc(C=NNc4nc(-c5ccc(C(F)(F)F)cc5)cs4)cc3)CC2)cc1` [Compound 3i, 2-(2-(4-(4-(4-fluorophenyl)piperazin-1-yl)benzylidene)hydrazineyl)-4-(4-(trifluoromethyl)phenyl)thiazole] the inhibition at 1000 µM (AChE) was 80.7 ± 1.02%, the IC50 (AChE) was 216 ± 10 nM and the inhibition at 100 µM (AChE) was > 50%. For the same compound, the inhibition at 1000 µM (BChE) was 45.4 ± 0.52%, the inhibition at 100 µM (BChE) was 35.4 ± 0.39% and the inhibition at 1000 µM (hMAO-A) was 38.2 ± 0.78%. The inhibition at 100 µM (hMAO-A) was 22.8 ± 0.54%, the inhibition at 1000 µM (hMAO-B) was 59.1 ± 0.77% and the inhibition at 100 µM (hMAO-B) was 40.2 ± 0.58%.
In the case of `Cc1ccc(-c2csc(NN=Cc3ccc(N4CCN(c5ccc(F)cc5)CC4)cc3)n2)c(C)c1` [Compound 3j, 4-(2,4-dimethylphenyl)-2-(2-(4-(4-(4-fluorophenyl)piperazin-1-yl)benzylidene)hydrazineyl)thiazole], the inhibition at 1000 µM (AChE) is reported as 53.8 ± 0.62%, the inhibition at 100 µM (AChE) is reported as 26.9 ± 0.55% and the inhibition at 1000 µM (BChE) is reported as 31.9 ± 0.47%. The inhibition at 100 µM (BChE) was 25.7 ± 0.49%, the inhibition at 1000 µM (hMAO-A) was 48.2 ± 0.88% and the inhibition at 100 µM (hMAO-A) was 40.2 ± 0.52%. It also gave an inhibition at 1000 µM (hMAO-B) of 69.2 ± 1.2% and an inhibition at 100 µM (hMAO-B) of 40.8 ± 0.92%.
Compound `Fc1ccc(N2CCN(c3ccc(C=NNc4nc(-c5ccc(Cl)cc5Cl)cs4)cc3)CC2)cc1` [Compound 3k, 4-(2,4-dichlorophenyl)-2-(2-(4-(4-(4-fluorophenyl)piperazin-1-yl)benzylidene)hydrazineyl)thiazole] has an inhibition at 1000 µM (AChE) of 35.7 ± 0.57%, an inhibition at 100 µM (AChE) of 20.4 ± 0.3% and an inhibition at 1000 µM (BChE) of 28.59 ± 0.25%. For the same compound, the inhibition at 100 µM (BChE) was 21 ± 0.61%, the inhibition at 1000 µM (hMAO-A) was 35.2 ± 0.48% and the inhibition at 100 µM (hMAO-A) was 19.1 ± 0.4%. For the same compound, the inhibition at 1000 µM (hMAO-B) was 55.1 ± 0.92% and the inhibition at 100 µM (hMAO-B) was 34.2 ± 0.81%.
Work on `O=C(NCCN1CCOCC1)c1ccc(Cl)cc1` [Moclobemide, reference compound] yielded an inhibition at 1000 µM (hMAO-A) of 91.2 ± 2.8% and an inhibition at 100 µM (hMAO-A) of 78.2 ± 2.55%.

Reference: publication PMC6651548, “Synthesis and AChE Inhibitory Activity of Novel Thiazolylhydrazone Derivatives” (Molecules, 2019)
